Results published in PMC11157767 (Molecular Cancer, 2024).

System: TRIM24-MET-i cells
Experimental: The number of unique and shared differentially expressed genes between each comparison are shown in parentheses. A linear regression line is depicted along with Pearson’s correlation coefficient (r) and its associated p-value. […] Common negatively enriched genesets between all three comparisons are in bold. c, Heatmaps showing expression of Hallmark_Myc_Target_v1/2 genes for indicated cells and treatment comparisons (TRIM-MET cells were treated in vitro, TFG-MET cells in vivo). Select leading edge genes from GSEA are labeled.

Compound: CNC(=O)c1ccc(-c2cnc3ncc(Cc4ccc5ncccc5c4)n3n2)cc1F [Capmatinib]
- NES HALLMARK_ADIPOGENESIS (GSEA v. DMSO): -0.9589
- NES HALLMARK_ALLOGRAFT_REJECTION (GSEA v. DMSO): -1.401
- NES HALLMARK_ANDROGEN_RESPONSE (GSEA v. DMSO): -1.889
- NES HALLMARK_APICAL_JUNCTION (GSEA v. DMSO): -1.091
- NES HALLMARK_APICAL_SURFACE (GSEA v. DMSO): 1.792
- NES HALLMARK_APOPTOSIS (GSEA v. DMSO): -1.59
- NES HALLMARK_BILE_ACID_METABOLISM (GSEA v. DMSO): 1.602
- NES HALLMARK_CHOLESTEROL_HOMEOSTASIS (GSEA v. DMSO): -1.359
- NES HALLMARK_COAGULATION (GSEA v. DMSO): -1.635
- NES HALLMARK_COMPLEMENT (GSEA v. DMSO): -1.904
- NES HALLMARK_DNA_REPAIR (GSEA v. DMSO): -0.965
- NES HALLMARK_E2F_TARGETS (GSEA v. DMSO): -1.195
- NES HALLMARK_EPITHELIAL_MESENCHYMAL_TRANSITION (GSEA v. DMSO): -1.076
- NES HALLMARK_ESTROGEN_RESPONSE_EARLY (GSEA v. DMSO): -1.483
- NES HALLMARK_ESTROGEN_RESPONSE_LATE (GSEA v. DMSO): -1.018
- NES HALLMARK_FATTY_ACID_METABOLISM (GSEA v. DMSO): 0.99
- NES HALLMARK_G2M_CHECKPOINT (GSEA v. DMSO): -1.318
- NES HALLMARK_GLYCOLYSIS (GSEA v. DMSO): -1.3547
- NES HALLMARK_HEDGEHOG_SIGNALING (GSEA v. DMSO): -1.3433
- NES HALLMARK_HEME_METABOLISM (GSEA v. DMSO): 1.243
- NES HALLMARK_HYPOXIA (GSEA v. DMSO): -1.387
- NES HALLMARK_IL2_STAT5_SIGNALING (GSEA v. DMSO): -2.015
- NES HALLMARK_IL6_JAK_STAT3_SIGNALING (GSEA v. DMSO): -0.9282
- NES HALLMARK_INFLAMMATORY_RESPONSE (GSEA v. DMSO): -1.659
- NES HALLMARK_INTERFERON_ALPHA_RESPONSE (GSEA v. DMSO): 1.273
- NES HALLMARK_INTERFERON_GAMMA_RESPONSE (GSEA v. DMSO): -0.9862
- NES HALLMARK_KRAS_SIGNALING_DN (GSEA v. DMSO): 1.126
- NES HALLMARK_KRAS_SIGNALING_UP (GSEA v. DMSO): -1.881
- NES HALLMARK_MITOTIC_SPINDLE (GSEA v. DMSO): -1.303
- NES HALLMARK_MTORC1_SIGNALING (GSEA v. DMSO): -2.1602
- NES HALLMARK_MYC_TARGETS_V1 (GSEA v. DMSO): -2.499
- NES HALLMARK_MYC_TARGETS_V2 (GSEA v. DMSO): -2.697
- NES HALLMARK_MYOGENESIS (GSEA v. DMSO): -0.8301
- NES HALLMARK_NOTCH_SIGNALING (GSEA v. DMSO): -1.186
- NES HALLMARK_OXIDATIVE_PHOSPHORYLATION (GSEA v. DMSO): -1.201
- NES HALLMARK_P53_PATHWAY (GSEA v. DMSO): -0.9833
- NES HALLMARK_PANCREAS_BETA_CELLS (GSEA v. DMSO): 1.071
- NES HALLMARK_PEROXISOME (GSEA v. DMSO): 1.028
- NES HALLMARK_PI3K_AKT_MTOR_SIGNALING (GSEA v. DMSO): -1.164
- NES HALLMARK_PROTEIN_SECRETION (GSEA v. DMSO): -1.171
- NES HALLMARK_REACTIVE_OXYGEN_SPECIES_PATHWAY (GSEA v. DMSO): -1.072
- NES HALLMARK_SPERMATOGENESIS (GSEA v. DMSO): 0.7417
- NES HALLMARK_TGF_BETA_SIGNALING (GSEA v. DMSO): -1.868
- NES HALLMARK_TNFA_SIGNALING_VIA_NFKB (GSEA v. DMSO): -2.324
- NES HALLMARK_UV_RESPONSE_DN (GSEA v. DMSO): -1.271
- NES HALLMARK_UV_RESPONSE_UP (GSEA v. DMSO): -1.537
- NES HALLMARK_WNT_BETA_CATENIN_SIGNALING (GSEA v. DMSO): -1.2104
- NES HALLMARK_XENOBIOTIC_METABOLISM (GSEA v. DMSO): 0.8191
- NES KRIGE_RESPONSE_TO_TOSEDOSTAT_6HR_DN (GSEA v. DMSO): -2.5861
- NES KRIGE_RESPONSE_TO_TOSEDOSTAT_24HR_DN (GSEA v. DMSO): -2.743
- NES LEE_BMP2_TARGETS_DN (GSEA v. DMSO): -2.881
- NES PUJANA_CHEK2_PCC_NETWORK (GSEA v. DMSO): -2.452
- NES WEI_MYCN_TARGETS_WITH_E_BOX (GSEA v. DMSO): -2.939
- ES GOBP_NCRNA_METABOLIC_PROCESS (GSEA, v. DMSO): -0.717
- ES GOBP_NCRNA_PROCESSING (GSEA, v. DMSO): -0.737
- ES GOBP_RIBONUCLEOPROTEIN_COMPLEX_BIOGENESIS (GSEA, v. DMSO): -0.7048
- ES GOBP_RIBOSOME_BIOGENESIS (GSEA, v. DMSO): -0.7793
- ES GOBP_RRNA_METABOLIC_PROCESS (GSEA, v. DMSO): -0.7679
- ES GOCC_MITOCHONDRIAL_ENVELOPE (GSEA, v. DMSO): -0.4986
- ES GOCC_NUCLEOLUS (GSEA, v. DMSO): -0.546
- ES GOCC_ORGANELLE_INNER_MEMBRANE (GSEA, v. DMSO): -0.5385
- ES GOCC_PRERIBOSOME (GSEA, v. DMSO): -0.8527
- ES GOCC_RIBONUCLEOPROTEIN_COMPLEX (GSEA, v. DMSO): -0.5996
- ES GOMF_CATALYTIC_ACTIVITY_ACTING_ON_A_TRNA (GSEA, v. DMSO): -0.6843
- ES GOMF_CATALYTIC_ACTIVITY_ACTING_ON_RNA (GSEA, v. DMSO): -0.6193
- ES GOMF_RNA_HELICASE_ACTIVITY (GSEA, v. DMSO): -0.6953
- ES GOMF_RRNA_BINDING (GSEA, v. DMSO): -0.7411
- ES GOMF_STRUCTURAL_CONSTITUENT_OF_RIBOSOME (GSEA, v. DMSO): -0.6124
- NES GOBP_NCRNA_METABOLIC_PROCESS (GSEA, v. DMSO): -2.6866
- NES GOBP_NCRNA_PROCESSING (GSEA, v. DMSO): -2.741
- NES GOBP_RIBONUCLEOPROTEIN_COMPLEX_BIOGENESIS (GSEA, v. DMSO): -2.64
- NES GOBP_RIBOSOME_BIOGENESIS (GSEA, v. DMSO): -2.85
- NES GOBP_RRNA_METABOLIC_PROCESS (GSEA, v. DMSO): -2.741
- NES GOCC_MITOCHONDRIAL_ENVELOPE (GSEA, v. DMSO): -1.908
- NES GOCC_NUCLEOLUS (GSEA, v. DMSO): -2.1002
- NES GOCC_ORGANELLE_INNER_MEMBRANE (GSEA, v. DMSO): -2.039
- NES GOCC_PRERIBOSOME (GSEA, v. DMSO): -2.662
- NES GOCC_RIBONUCLEOPROTEIN_COMPLEX (GSEA, v. DMSO): -2.294
- NES GOMF_CATALYTIC_ACTIVITY_ACTING_ON_A_TRNA (GSEA, v. DMSO): -2.236
- NES GOMF_CATALYTIC_ACTIVITY_ACTING_ON_RNA (GSEA, v. DMSO): -2.299
- NES GOMF_RNA_HELICASE_ACTIVITY (GSEA, v. DMSO): -2.194
- NES GOMF_RRNA_BINDING (GSEA, v. DMSO): -2.258
- NES GOMF_STRUCTURAL_CONSTITUENT_OF_RIBOSOME (GSEA, v. DMSO): -2.138
